Molecules are shown by their SMILES. pIC50: −log10 of the molar value.

In the first test the target is T1, human IBAT (Homo sapiens, UniProt Q12908).
T1 construct: expressed in transfected cells; host or cells: Baby hamster kidney (BHK) cells, clone H14
T1 sequence (Q12908 1-348): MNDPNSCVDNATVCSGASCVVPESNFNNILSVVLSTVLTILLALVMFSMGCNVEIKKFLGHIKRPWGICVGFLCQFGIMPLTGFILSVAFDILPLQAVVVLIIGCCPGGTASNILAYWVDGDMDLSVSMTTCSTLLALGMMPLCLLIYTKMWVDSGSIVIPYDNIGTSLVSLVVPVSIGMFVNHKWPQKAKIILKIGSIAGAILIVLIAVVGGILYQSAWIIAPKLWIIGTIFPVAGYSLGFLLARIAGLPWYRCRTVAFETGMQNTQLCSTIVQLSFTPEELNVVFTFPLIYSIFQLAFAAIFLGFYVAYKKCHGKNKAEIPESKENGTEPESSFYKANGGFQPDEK
The experiment in a line: In vitro assay of IBAT-mediated uptake of [14C]-taurocholate (TC) in H14 cells. Format: cell-based. Conditions: 6 μM. The procedure:
In Vitro Assay of Compounds that Inhibit IBAT-Mediated Uptake of [^14C]-Taurocholate (TC) in H14 Cells
Baby hamster kidney cells (BHK) transfected with the cDNA of human IBAT (H14 cells) are seeded at 60,000 cells/well in 96 well Top-Count tissue culture plates for assays run within in 24 hours of seeding, 30,000 cells/well for assays run within 48 hours, and 10,000 cells/well for assays run within 72 hours.
On the day of assay, the cell monolayer is gently washed once with 100 μl assay buffer (Dulbecco's Modified Eagle's medium with 4.5 g/L glucose+0.2% (w/v) fatty acid free bovine serum albumin-(FAF)BSA). To each well 50 μl of a two-fold concentrate of test compound in assay buffer is added along with 50 μl of 6 μM [^14C]-taurocholate in assay buffer (final concentration of 3 μM [^14C]-taurocholate). The cell culture plates are incubated 2 hours at 37° C. prior to gently washing each well twice with 100 μl 4° C. Dulbecco's phosphate-buffered saline (PBS) containing 0.2% (w/v) (FAF)BSA. The wells are then gently washed once with 100 μl 4° C. PBS without (FAF)BSA. To each 200 μl of liquid scintillation counting fluid is added, the plates are heat sealed and shaken for 30 minutes at room temperature prior to measuring the amount of radioactivity in each well on a Packard Top-Count instrument.
By inhibition is commonly meant the change of the read-out against control, counted positive when it falls. Turning to `CCCC[C@]1(CC)CS(=O)(=O)c2ccc(N)cc2[C@H](c2ccccc2)[C@@H]1O` [Example 63, (3α,4α,5α) 3-Butyl-3ethyl-4-hydroxy-7-amino-5-phenyl-2,3,4,5-tetrahydrobenzothiepine-1,1-dioxide], the inhibition at 6 µM was found to be 90%.
Still for that read-out and setting: the value for `CCCC[C@]1(CC)CS(=O)(=O)c2ccc(N)cc2[C@@H](c2ccccc2)[C@H]1O` [Example 64, (3α,4β,5β) 3-Butyl-3-ethyl-4-hydroxy-7-amino-5-phenyl-2,3,4,5-tetrahydrobenzothiepine-1,1-dioxide] was 100%.

The same test, now with this note: 50 μM.
On to `CCCCCCNc1ccc2c(c1)[C@H](c1ccccc1)[C@H](O)[C@](CC)(CCCC)CS2(=O)=O` [Example 40, (3α,4α,5α) 3-Butyl-3-ethyl-7-(n-hexylamino)-4-hydroxy-5-phenyl-2,3,4,5-tetrahydrobenzothiepine-1,1-dioxide], for which the inhibition at 50 µM is 49%.
Compound `C1=C(c2ccccc2)c2ccccc2SCC12CCCCC2` [Example 57, 5-Phenyl-2,3-dihydrospirobenzothiepine-3,1′-cyclohexane] gave an inhibition at 50 µM of 51%.
Same read-out and setting: the value for `O=S1(=O)CC2(CCCCC2)C2OC2(c2ccccc2)c2ccccc21` (stereo not drawn) [Example 58, 8b-Phenyl-1a,2,3,8b-tetrahydrospiro(benzothiepino[4,5-b]oxirene-2,1′-cyclohexane)-4,4-dioxide] was 20%.

Still in this test, the particulars now being: 100 uM; read-out: In vitro % Inhibition of TC Uptake @ 100 uM.
As to `CCCC[C@]1(CC)CS(=O)(=O)c2ccccc2[C@H](c2ccccc2)[C@H]1O` [Example 6b, (3α,4β,5α) 3-Butyl-3-ethyl-4-hydroxy-5-phenyl-2,3,4,5-tetrahydro-benzothiepine-1,1-dioxide], the inhibition at 100 µM was 85%.
With `CCCC[C@]1(CC)CS(=O)(=O)c2ccccc2[C@@]2(c3ccccc3)O[C@@H]12` [Example 8a, (1aα,2β,8bα) 2-Butyl-2-ethyl-8b-phenyl-1α,2,3,8b-tetrahydro-benzothiepino[4,5-b]oxirene-4,4-dioxide], the inhibition at 100 µM is 41%.
Same read-out and setting: then `CCC1CS(=O)(=O)c2ccccc2[C@@]2(c3ccccc3)O[C@@H]12` (stereo partly drawn) [Example 13, (1aα,2α,8bα) 2-Ethyl-8b-phenyl-1a,2,3,8b-tetrahydro-benzothiepino-[4,5-b] oxirene-4,4-dioxide], with 23%.
Same read-out and setting: then `CC[C@@H]1CS(=O)(=O)c2ccccc2[C@H](c2ccccc2)[C@H]1O` [Example 14a, (3α,4β,5α)-3-Ethyl-4-hydroxy-5-phenyl-2,3,4,5-tetrahydro-benzothiepine-1,1-dioxide], with 13%; and `CC[C@@H]1CS(=O)(=O)c2ccccc2[C@@H](c2ccccc2)[C@H]1O` [Example 14b, (3α,4β,5β) 3-Ethyl-4-hydroxy-5-phenyl-2,3,4,5-tetrahydrobenzothiepine-1,1-dioxide], with 18%.
Still for that read-out and setting: then `CCCCC1(CC)C=Cc2ccccc2SC1` (stereo not drawn) [Example 18, 3-Butyl-3-ethyl-2,3-dihydrobenzothiepine], with 6%.
Consider `CCCC[C@]1(CC)CS(=O)(=O)c2ccccc2[C@@H]2O[C@@H]21` [Example 19a, (1aα,2α,8bα) 2-Butyl-2-ethyl-1a,2,3,8b-tetrahydro-benzothiepino[4,5-b]oxirene-4,4-dioxide], for which the inhibition at 100 µM was found to be 0%.
On the same count and under the same terms, the value for `CCCC[C@]1(CC)CS(=O)(=O)c2ccccc2[C@H]2O[C@H]21` [Example 19b] was 15%; that for `CCCCC1(CC)CS(=O)(=O)c2ccccc2C(Sc2ccccc2)C1O` (stereo not drawn) [Example 21a, 3-Butyl-3-ethyl-4-hydroxy-5-phenylthio-2,3,4,5-tetrahydro-benzothiepine-1,1-dioxide] was 37%.

Still in this test, the particulars now being: H14 cells, Table 5; read-out: IC50 uM (In vitro Taurocholate Cell Uptake).
What is called IC50 is the concentration needed to halve the response being measured. Regarding `CCCC[C@]1(CC)CS(=O)(=O)c2ccccc2[C@@H](c2ccc(I)cc2)[C@H]1O` [Example 42, (3α,4β,5β) 3-Butyl-3-ethyl-4-hydroxy-5-(4-iodophenyl)-2,3,4,5-tetrahydrobenzothiepine-1,1-dioxide], the IC50 is 1.5 µM.
The same measure, in the same setting: the value for `CCCC[C@]1(CC)CSc2ccccc2[C@H](c2ccccc2)[C@@H]1O` [Example 61, (3α,4α,5α) 3-Butyl-3-ethyl-4-hydroxy-5-phenyl-2,3,4,5-tetrahydrobenzothiepine] was 30 µM; that for `CCCC[C@]1(CC)CSc2ccccc2[C@@H](c2ccccc2)[C@H]1O` [Example 62, (3α,4β,5β) 3-Butyl-3-ethyl-4-hydroxy-5-phenyl-2,3,4,5-tetrahydrobenzothiepine] was 10 µM.

Staying with this test, now noted: Human TC IC50.
As usually defined, the pIC50 is the negative decadic logarithm of the IC50, by convention in mol/L. Turning to `CCCC[C@]1(CC)CS(=O)(=O)c2ccc(N(C)C)cc2[C@@H](c2ccccc2)[C@H]1O` [Example 104], the pIC50 was 8.25.
On the same count and under the same terms, then `CCCCC1(CC)CS(=O)(=O)c2ccc(OCCCCCCOc3ccc4c(c3)C(c3ccccc3)C(O)C(CC)(CCCC)CS4(=O)=O)cc2C(c2ccccc2)C1O` (stereo not drawn) [Example 139], with less than 4.60.

The same test, now with this note: read-out: Human TC IC50.
Consider `CCCC[C@]1(CC)CS(=O)(=O)c2ccc([N+](C)(C)C)cc2[C@@H](c2ccccc2)[C@H]1O` [Example 102], for which the pIC50 is 7.08.
Same read-out and setting: then `CCCCC1(CC)CS(=O)(=O)c2ccc(NS(C)(=O)=O)cc2C(c2ccccc2)C1O` (stereo not drawn) [Example 105], with 6.22; and `CCCCC1(CC)CS(=O)(=O)c2ccc(NC(=O)CBr)cc2C(c2ccccc2)C1O` (stereo not drawn) [Example 106], with 6.10; and `CCCCCC(=O)Nc1ccc2c(c1)C(c1ccccc1)C(O)C(CC)(CCCC)CS2(=O)=O` (stereo not drawn) [Example 108], with 6.52.
Same read-out and setting: the value for `CCCCC1(CC)CS(=O)(=O)c2ccc(NC(C)=O)cc2C(c2ccccc2)C1O` (stereo not drawn) [Example 110] was 7.05; that for `CCCC[C@@]1(CC)CS(=O)(=O)c2ccc(N)cc2[C@@H](c2ccc(O)cc2)[C@H]1O` [Example 111] was 5.60.
In the case of `CCCC[C@]1(CC)CS(=O)(=O)c2ccc(N)cc2[C@@H](c2ccc(OCCOCCOCCOc3ccc([C@H]4c5cc(N)ccc5S(=O)(=O)C[C@](CC)(CCCC)[C@H]4O)cc3)cc2)[C@H]1O` [Example 112], the pIC50 is 5.52.
Still for that read-out and setting: the value for `CCCC[C@]1(CC)CS(=O)(=O)c2ccc(N)cc2[C@@H](c2ccc(O)cc2)[C@H]1O` [Example 113] was 7.00; that for `CCCCC1(CC)CS(=O)(=O)c2ccc(N)cc2C(c2ccc(OC)cc2)C1O` (stereo not drawn) [Example 114] was 6.72; that for `CCCCC1(CC)CS(=O)(=O)c2ccc(NC(=O)OCc3ccccc3)cc2C(c2ccccc2)C1O` (stereo not drawn) [Example 118] was 6.40.
The same measure, in the same setting: the value for `CCCCCCNc1ccc2c(c1)C(c1ccccc1)C(O)C(CC)(CCCC)CS2(=O)=O` (stereo not drawn) [Example 123] was 5.78; that for `CCCC[C@]1(CC)CS(=O)(=O)c2cc(OCCOCCOCC[N+](C)(C)C)ccc2[C@@H](c2ccccc2)[C@H]1O` [Example 125] was 4.74; that for `CCCCC1(CC)CS(=O)(=O)c2ccc(NC(=O)OCc3ccccc3)cc2C(c2ccc(F)cc2)C1O` (stereo not drawn) [Example 128] was 6.15.
For the compound `CCCC[C@]1(CC)CS(=O)(=O)c2cc(OCCOCCOCCI)ccc2[C@@H](c2ccccc2)[C@H]1O` [Example 134], the pIC50 is 6.52.
Same read-out and setting: then `CCCC[C@]1(CC)CS(=O)(=O)c2cc(O)ccc2[C@@H](c2ccccc2)[C@H]1O` [Example 136], with 7.05; and `CCCCC1(CC)CS(=O)(=O)c2cc(OC(C)=O)ccc2C(c2ccccc2)C1O` (stereo not drawn) [Example 138], with 5.52; and `CCCCC1(CC)CS(=O)(=O)c2ccc(N3CCC3)cc2C(c2ccc(F)cc2)C1O` (stereo not drawn) [Example 144], with 7.28.
Consider `CCCCC1(CC)CS(=O)(=O)c2ccc(O)cc2C(c2cccc(O)c2)C1O` (stereo not drawn) [Example 266], for which the negative-log IC50 (pIC50) is 6.30.
Take `CCCCC1(CC)CS(=O)(=O)c2ccc(OC)cc2C(c2cccc(O)c2)C1O` (stereo not drawn) [Example 267]: the pIC50 was 7.14.
The same measure, in the same setting: the value for `CCCCC1(CC)CS(=O)(=O)c2ccc(OC)cc2C(c2ccc(F)cc2)C1O` (stereo not drawn) [Example 268] was 7.54.
On the same count and under the same terms, the value for `CCCCC1(CC)CS(=O)(=O)c2ccc(OC)cc2C(c2ccc(F)cc2)C1O` (stereo not drawn) [Example 269] was 7.10; that for `CCCCC1(CC)CS(=O)(=O)c2ccc(O)cc2C(c2ccc(F)cc2)C1O` (stereo not drawn) [Example 270] was 6.92.
Same read-out and setting: the value for `CCCCC1(CC)CS(=O)(=O)c2ccc(F)cc2C(c2cccc(OC)c2)C1O` (stereo not drawn) [Example 276] was 6.64; that for `CCCCC1(CC)CS(=O)(=O)c2ccc(OC)cc2C(c2cccc(F)c2)C1O` (stereo not drawn) [Example 277] was 7.40.
For the compound `CCCCC1(CC)CS(=O)(=O)c2ccc(OC)cc2C(c2ccccc2F)C1O` (stereo not drawn) [Example 280], the negative logarithm of the IC50 (pIC50) is 6.74.

Staying with this test, now noted: read-out: In vitro % Inhibition of TC Uptake @ 100 uM.
In the case of `CCC1C=C(c2ccccc2)c2ccccc2SC1` (stereo not drawn) [Example 12, 3-Ethyl-5-phenyl-2,3-dihydrobenzothiepine], the inhibition at 100 µM was 25%.
